Assay [1] has as its system T. cruzi INC-5 strain. Nature of the assay: in vivo short-term trypanocidal activity (parasitemia) in infected CD1 mice, INC-5 strain. Details: species or system Trypanosoma cruzi in CD1 mice. The protocol: (§1) Parasitemia was monitored at 2, 4, 6, and 8 h after administration (see Figure 2).
(§2) CD1 strain mice, 6–8 weeks old, were used to maintain Ninoa and INC-5 strains of T. cruzi. Animals were given by the University of Science and Arts of Chiapas. To maintain the strains, animals were intraperitoneally inoculated every 14 days with 1 × 10^5 blood trypomastigote, obtained from parasite-infected mice. Parasitemia was monitored every three days by the Pizzi method. For this, 5 µL of blood from the caudal vein of infected mice were deposited on a slide and evenly distributed with an 18 × 18 mm coverslip. Parasite counting was performed by observing 15 microscopic fields using a 40 × objective lens. For the in vivo short term evaluation of the trypanocidal activity of the FDA-approved drugs, six groups of six CD1 mice each with homogeneous weight and parasitemia were used.
(§3) In vivo short-term evaluation of the trypanocidal activity of the FDA-approved drugs. Six groups of six CD1 female mice were infected with blood trypomastigotes of Ninoa and INC-5 strains following the methodology previously described in Romanha et al. and in Díaz-Chiguer et al.. At day 13 post-infection, when the infected mice reached an average of 5 × 10^6 parasites/mL, a single dose of the FDA-approved drugs at 100 mg/kg body weight was orally administered. Parasitemia was monitored following the Pizzi method at 2, 4, 6, and 8 h post-treatment […] using mineral oil as a vehicle. […] Mice examination was performed as stated in the Norma Official Mexicana (NOM-062-Z00-1999), published on August 2009.

Assay [2] concerns T. cruzi epimastigote (Ninoa strain). Nature of the assay: in vitro evaluation against epimastigotes, Ninoa strain (resazurin). The note with it: Trypanosoma cruzi, 48 h at 28 °C. In kind it is cell-based. The source says: (§4) The high-priority hit drugs were subjected to experimental validation in vitro, ex vivo, and in vivo, together with a cytotoxicity assay. Ninoa and INC-5 strains of T. cruzi were used in this study. […] In vitro evaluation of different FDA-approved drugs against Trypanosoma cruzi epimastigotes. The epimastigote stage of Ninoa and INC5 strains of T. cruzi were used to evaluated the in vitro trypanocidal activity of different FDA-approved drugs. Both strains were maintained in liver infusion tryptose (LIT) medium, supplemented with 10% fetal bovine serum (FBS) and 0.1% penicillin–streptomycin. They were preserved by transferring 1 × 10^6 parasites/mL into a new culture medium every week. […] All compounds were initially prepared at 10 mg/mL, using dimethyl sulfoxide (DMSO) as diluent. Serial dilutions were performed using complemented LIT medium until concentrations of 100 to 0.46 µg/mL of each drug were obtained. […] After the incubation period, 20 µL of 2.5 mM resazurin solution were added to each well and incubated for 3 h. All assays were carried out in triplicate.

Assay [3] deals with T. brucei. Details: method as in Nenortas et al. 70. The note with it: ref Nenortas et al. 70; read-out: EC50, active against T. brucei in vitro; cited from earlier work.
The subject of assay [4] is T. cruzi Ninoa strain. As to the kind of experiment: in vivo short-term trypanocidal activity (parasitemia) in infected CD1 mice, Ninoa strain. Details: species or system Trypanosoma cruzi in CD1 mice. The protocol:
as §1, §2, §3

Assay [5] relates to T. cruzi blood trypomastigote (Ninoa strain). As to the kind of experiment: ex vivo evaluation against blood trypomastigotes, Ninoa strain. Format: cell-based. The note with it: Trypanosoma cruzi, 24 h at 4 °C. The source says:
(§5) The high-priority hit drugs were subjected to experimental validation in vitro, ex vivo, and in vivo, together with a cytotoxicity assay. Ninoa and INC-5 strains of T. cruzi were used in this study. The Ninoa strain was obtained in 1986 by xenodiagnoses from an acute case of Chagas’ disease in Oaxaca, Mexico, whereas the INC-5 strain was obtained in 1997 from a chronic case of Chagas’ disease in a person in Guanajuato, Mexico.
(§6) Ex vivo evaluation of different FDA-approved drugs against Trypanosoma cruzi blood trypomastigotes. The ex vivo evaluation of the trypanocidal activity of the FDA-approved drugs was carried out according to the methodology described above. Blood from parasite infected animals was obtained from intracardiac puncture and diluted with phosphate-buffered saline (PBS), pH 7.2, until a concentration of 2 × 10^6 blood trypomastigotes/mL was obtained. From this, 195 µL of blood/well was placed in a 96-well plate and incubated at 4 °C for 24 h with 5 µL of each drug tested at different concentrations (5 µg/mL to […]). […] After incubation, live parasites were counted in a Neubauer chamber and the IC50 was calculated. Three independent experiments by triplicate were performed.

For assay [6], the system named is T. cruzi blood trypomastigote (INC-5 strain). Nature of the assay: ex vivo evaluation against blood trypomastigotes, INC-5 strain. In kind it is cell-based. The note with it: Trypanosoma cruzi.
Source text: as §5, §6

Assay [7] relates to T. cruzi epimastigote (INC-5 strain). As to the kind of experiment: in vitro evaluation against epimastigotes, INC-5 strain (resazurin). Format: cell-based. The note with it: Trypanosoma cruzi, 48 h at 28 °C.
Source text: as §4

The test system of assay [8] is T. cruzi epimastigotes. Details: method as in PMID 32560043. The note with it: cited from earlier work.
The target in assay [9] is T. cruzi DHFR. Details: method as in PMID 12084467. The note with it: read-out: Ki, inhibitor of T. cruzi DHFR; cited from earlier work.
The test system of assay [10] is T. cruzi. Details: method as in PMID 25033456. The note with it: read-out: EC50, inhibition of T. cruzi growth in vitro; cited from earlier work.
In assay [11] the test system is T. cruzi. Details: method as in per drug in column Reference of Table 2. The note with it: class of literature evidence of trypanocidal activity; ref per drug in Table 2; cited from earlier work.
Assay [12] has as its system T. cruzi reverse transcriptase. More on the design: method as in PMID 8913446. The note with it: cited from earlier work.

Like-named read-outs stand apart in the source and are kept apart here.
For Trypan. Activity in this document: key: ? indicates unknown activity; + indicates indirect evidence of activity; ++ indicates direct evidence of activity.

As a reminder, the IC50 is the concentration that gives 50% inhibition. The term EC50 denotes the concentration needed to bring the measured effect to its halfway point. Regarding `O=C(O)c1cn(C2CC2)c2cc(N3CCNCC3)c(F)cc2c1=O` [Ciprofloxacin], the “Parasitemia inhibition percentage over the time, 2 horas INC-5” value in [1] (100 mg/kg oral, 2 horas, INC-5) was determined as 100. Also, the “Parasitemia inhibition percentage over the time, 4 horas INC-5” value in assay [1] (100 mg/kg oral, 4 horas, INC-5) turned out to be 75. The “Parasitemia inhibition percentage over the time, 6 horas INC-5” value in assay [1] (100 mg/kg oral, 6 horas (first column so headed), INC-5) is 62.5; in assay [1] (100 mg/kg oral, 6 horas (second, last column so headed), INC-5), 56.2. Further, the parasitemia inhibition in [1] (mice infected with INC-5 strain, single oral dose 100 mg/kg, eight hours after administration) is 43.8%; in assay [4] (mice infected with Ninoa strain, single oral dose 100 mg/kg, eight hours after administration), 66.7%. In addition, the IC50 in assay [2] is > 400 µM; in assay [5], 25.7 ± 0.04 µM; in [6] (ex vivo, INC-5 strain, 24 h at 4 °C, read-out: T.cruzi blood trypomastigote IC50 INC-5), 21.3 ± 0.09 µM; in assay [6] (rounded value in the discussion, refers to Table 3, strain not stated, read-out: IC50, inhibitor of T. cruzi trypomastigotes), 21 µM; in assay [7] it was > 400 µM. The EC50 in assay [3] was 52 µM. In addition, the “Parasitemia inhibition percentage over the time, 2 horas Ninoa” value in assay [4] (100 mg/kg oral, 2 horas, Ninoa) was 100. In addition, in assay [4] (100 mg/kg oral, 4 horas, Ninoa), the “Parasitemia inhibition percentage over the time, 4 horas Ninoa” value is listed as 50. Moreover, the “Parasitemia inhibition percentage over the time, 6 horas Ninoa” value in assay [4] (100 mg/kg oral, 6 horas (first column so headed), Ninoa) came to 33.3; in assay [4] (100 mg/kg oral, 6 horas (second, last column so headed), Ninoa) it was 33.3.

For the compound `Cc1cnc(C(=O)NCCc2ccc(S(=O)(=O)NC(=O)NC3CCCCC3)cc2)cn1` [Glipizide], in [8], the “growth inhibitory activity on T. cruzi epimastigotes” value (shortened to “growth inhibitory activity”) is listed as “micromolar range”.

With `COc1ccc2c(c1)C(=O)N(CCc1ccc(S(=O)(=O)NC(=O)NC3CCCCC3)cc1)C(=O)C2(C)C` [Gliquidone], in [8], the “growth inhibitory activity” value is “micromolar range”.

On to `COc1ccc(Cl)cc1C(=O)NCCc1ccc(S(=O)(=O)NC(=O)NC2CCCCC2)cc1` [Glyburide], for which the “growth inhibitory activity” value in [8] is on record as “micromolar range”.

On to `Cc1cn(-c2cc(NC(=O)c3ccc(C)c(Nc4nccc(-c5cccnc5)n4)c3)cc(C(F)(F)F)c2)cn1` [Nilotinib], for which the “growth inhibitory activity” value in assay [8] is listed as “micromolar range”.

As usually defined, the Ki is a dissociation constant, usually derived from enzyme kinetics or from competition with a known ligand. On to `CCc1nc(N)nc(N)c1-c1ccc(Cl)cc1` [Pyrimethamine], for which the Ki in assay [9] is 0.1 µM. The EC50 in assay [10] was 3.8 µM. For the same compound, the “Trypan. Activity” value in [11] was “++”.

In the case of `Cc1cn([C@H]2C[C@H](N=[N+]=[N-])[C@@H](CO)O2)c(=O)[nH]c1=O` [Zidovudine], the “inhibition of T. cruzi reverse transcriptase” value in assay [12] is “does not inhibit”. For the same compound, in assay [11], the “Trypan. Activity” value is “++”.
